One test has as its system S. coelicolor M145. The procedure: (§1) Bioassay using spore suspension of M145(top), M751(left bottom) and M752(right bottom) as indicator strain and spotted with 1 μg of SCB1. The plates were incubated at 30° C. for 20 h (left panel) or 40 h (right panel).
(§2) γ-butyrolactones were isolated from liquid or solid media by extracting the culture supernant or the agar with ethylacetate. The ethylacetate was evaporated and the sample was resuspended in 100% methanol for use in a bioassay or for HPLC analysis. Bioassay and HPLC analysis were conducted as described previously (Takano et al., 2000).

Test [1] has as its system S. coelicolor M751 (ΔscbA). The procedure:
as §1, §2

In test [2] the test system is S. coelicolor M752 (ΔscbR). The protocol: as §1, §2
The test system of test [3] is S. coelicolor M751 (ΔscbA). The source holds these as a separate data set.

Sequence of ScbR (as listed by the source): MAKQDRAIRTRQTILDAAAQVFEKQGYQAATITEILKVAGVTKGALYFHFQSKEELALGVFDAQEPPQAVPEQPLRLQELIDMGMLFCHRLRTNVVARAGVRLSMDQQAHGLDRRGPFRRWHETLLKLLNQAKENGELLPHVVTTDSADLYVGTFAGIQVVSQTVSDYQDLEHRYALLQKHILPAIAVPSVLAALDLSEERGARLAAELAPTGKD

As to “2-isocaryloyl-3R-hydroxymethyl-γ-butyrolactone [A-factor]”, the “Formation of the DNA-protein complex (DNA-binding activity of ScbR)” value in the test on ScbR is recorded as “failed to inhibit”.
For `CC(C)CCCC[C@@H](O)[C@@H]1C(=O)OC[C@H]1CO` [SCB1], the “Response to exogenous SCB1 (antibiotic production in lawn)” value in the test with S. coelicolor M145 is reported as “responded in the expected way”. In test [1], the “Effect of high concentrations of SCB1 on antibiotic production (lighter halo around the point of application)” value is “inhibitory effect”. Further, the “Response to exogenous SCB1 (antibiotic production in lawn)” value in test [2] is recorded as “did not respond”. In addition, in test [3], the “Level of scbR transcription” value is “marked increase” and the scbA transcription entry is recorded as “not restored”.
